Experimental data taken from patent publication US5977144A (priority 1997, dated 1999).
“Also recorded” adds a separate entry of the source. Counter-ions that a name gives are not always drawn. Like-named read-outs stand apart in the source and are kept apart here.

How the values were obtained:
[1] = target: alpha7 receptor (high affinity alpha-bungarotoxin binding, rat brain membranes) (Rattus norvegicus, UniProt Q05941); experiment: biochemical
[2] = target: rat alpha4beta2 receptor (Rattus norvegicus, UniProt P09483+P12390); experiment: Activation of alpha4beta2 receptors expressed in Xenopus oocytes; assay type: cell-based; details: for Emax: read-out: alpha4beta2 activation: response compared to maximal acetylcholine
Description: FIG. 14A. Responses of α4β2 ACHR to 3-CA, 2-MeOCA or 4-MeOCA. Concentration-response relationships for the peak agonist activated currents of oocytes injected with RNA coding for rat α4β2 subunits. Responses are first expressed relative to the response to 10 μM ACh, applied 5 min before drug-application, then normalized to the maximum response obtainable with ACh so that a response of 1 represents full efficacy. The ratio between 10 μM ACh and maximum ACh response was determined in separate experiments.
(§1) Oocytes were prepared and recordings made as described previously (de Fiebre, et al., 1995). Frogs were anesthetized by submersion in 0.1% (3)-aminobenzoic acid ethyl ester and several lobes of the ovary surgically removed through a small incision in the abdomen wall. Oocytes were freed from the follicle cells by treatment with collagenase (in calcium-free Barth's solution: 88 mM NaCl, 1 mM KCl, 15 mM Hepes pH 7.6, 0.33 mM MgSO4, 0.1 mg/ml gentamicin sulfate) for 2 hr at room temperature and Stage 5 oocytes were isolated. Oocytes were rinsed and stored at 18° C. in Barth's saline (88 mM NaCl, 1 mM KCl, 15 mM Hepes pH 7.6, 0.3 mM Ca(NO3)2, 0.41 mM CaCl2, 0.82 mM MgSO4, 0.1 mg/ml gentamicin sulfate) before and after microinjection with RNA. Microinjection was conducted with a Drummond Scientific "Nanoject Variable" automatic injector. Oocytes were injected with a 50 nl solution of specified rat nicotinic subunit mRNA species (2-10 mg/ml; derived from the cDNA containing HIP 306 plasmid kindly provided by Dr. Jim Boulter, Salk Institute) and incubated 2-7 days at 18° C. before electrophysiological recording. electrophysiological recordings, oocytes were perfused in a Warner Instruments RC-8 recording chamber with a perfusion solution containing 115 mM NaCl, 2.5 mM KCl, 10 mM Hepes pH 7.2, 1.8 mM CaCl2 and 1 μM atropine to block muscarinic responses. Perfusion was continuous at a rate of 10 ml/min. Drags were diluted in perfusion solution and applied using a solenoid valve to switch from perfusion to drug solutions. Current responses to drug administration were studied under two electrode voltage clamp at a holding potential of -70 mV using a Dagan Corp. TEV-200 voltage clamp connected to a 386-SX IBM computer using a TL-1 DMA interface (Axon Instruments). Micropipettes were filled with 3 M KCl and had resistances of 0.5-2 MOhms. Drug responses are analyzed with PClamp software (Axon Instruments). Oocytes with resting potentials of less than -30 mV were rejected.

[3] = target: T1, rat alpha7 receptor (Rattus norvegicus, UniProt Q05941); experiment: cell-based
Description: FIG. 13A. Effects of chronic injections of DMXB or nicotine on high affinity [^3 H]ACh or [^125 I]α-bungarotoxin (BTX) binding in rat neocortices. Adult male rats were injected with saline vehicle, 1 mg/kg DMXB or 0.2 mg/kg nicotine (NIC) (IP) daily for 2 weeks. At that time, neocortices were removed and assayed for high affinity [^3 H]ACh or [^125 I]α-bungarotoxin binding as described in the text. […] Responses of rat α7 ACHR to 3-CA, 2-MeOCA and 4-MeOCA. Concentration-response relationships for the peak agonist activated currents of oocytes injected with RNA coding for the rat α7 subunit. All responses were initially measured relative to the individual oocyte-response to 500 μM ACh, applied 5 min prior to drug-application. Responses were normalized relative to the maximum response obtainable with ACh so that a response of 1 represents full efficacy. The ratio of 500 μM ACh control response to ACh maximum was taken from Papke et al., 1997.
as §1

[4] = target: T1, rat alpha7 receptor; experiment: cell-based; parameters: Oocytes Antagonist: unit not given here
Description: FIG. 13B. Effects of chronic injections of DMXB or nicotine on high affinity [^3 H]ACh or [^125 I]α-bungarotoxin (BTX) binding in rat neocortices. Adult male rats were injected with saline vehicle, 1 mg/kg DMXB or 0.2 mg/kg nicotine (NIC) (IP) daily for 2 weeks. At that time, neocortices were removed and assayed for high affinity [^3 H]ACh or [^125 I]α-bungarotoxin binding as described in the text. […] Responses of rat α7 AChR to 3-CA, 2-MeOCA and 4-MeOCA. […] All responses are expressed relative to the oocyte-response to 500 μM ACh applied 5 min prior to the experimental agonist application.
as §1
Antagonist properties subsequent to agonist activity were measured as a decrease in responsiveness to ACh applied 5 min after compound-application, normalized to ACh application instead of the anabaseine-derivative (FIG. 13A AND FIG. 13B).

[5] = tested on: rat primary neocortical neurons; assay type: cell-based
[6] = tested on: rat; experiment: Focal ischemia infarct size in rats; assay type: in vivo; details: 0.5 mg/kg IP mecamylamine with DMXB
Description: FIG. 3. […] Rats received a 30 minute ischemia attack through tying of their common carotid; the amount of cell death (proportional to Infarct Size) was determined 24 hours later. Some animals received the benzylidene-anabaseine compound DMXB (1 mg/kg IP, salt weight) 1 hour before ligation, or the nicotinic antagonist mecamylamine (0.5 mg/kg IP), or both mecamylamine and DMXB, or DMXB 5 minutes after the ligation.
Male Sprague Dawley albino male rats (250-300 g) were anesthetized with a subcutaneous injection of ketamine, xylazine, and acepromazine (3:3:1 mixture, 0.7 cc/kg). Atropine (0.4 mg/kg IP) was injected several min prior to dissection of the carotid artery from the vagus. The internal carotid artery (ICA) was dissected until its proximal bifurcation into the terminal ICA and pterygopalatine arteries were clearly defined. The pterygopalatine artery was clipped parallel to and flush with the terminal ICA. Another clip was applied to the common carotid artery (CCA). The distal aspect of the external carotid artery (ECA) was coagulated and a straight aneurysm clip was applied 4 mm distal to the proximal ICA bifurcation. A suture was passed through the arteriotomized ECA stump into the ICA until the tip was resting against the aneurysm clip. The suture was removed 30 min later, with body temperature maintained between 36.5-37.5° C. The ECA stump was coagulated with bipolar electrocautery. Clips were removed and the wound was irrigated with saline prior to suturing.
Rats were euthanised 24 hours post-infarction and their brains removed and sectioned coronally (2 mm). Sections were placed into a 2% solution of 2,3,5-triphyenyl-tetrazolium cholide (Sigma Chemical Co., St. Louis. Mo.) for 20 minutes at 37° C. The sections were removed to a petri dish and covered with 10% formaldehyde solution. The outline function of the NIH Image computer program (version 1.47) was used to estimate the infarcted and total brain areas for each section. Infarct size was calculated as percent of total brain area.

[7] = tested on: PC12 cells; assay type: cell-based; details: 10 μM (NGF 100 ng/ml); 4 days after removal of serum and NGF; mean±SEM; * p<0.05
Description: PC12 cell-culture methods were modified from Greene and Tischler (1976). Cells were plated at 30-40% confluence and grown in Dulbecco's Modified Eagle Medium containing 10% heat-inactivated horse serum, 5% fetal bovine serum, 100 units/ml penicillin, 100 μg/ml streptomycin and 0.5 mM 1-glutamine. Cultures were maintained at 37° C., […] /6% CO2 and 90-92% humidity in culture plates pre-coated with poly-1lysine (10 g/L). Cultures were maintained for 7 days in serum-supplemented medium to which 100 ng/ml rat 2.5S NGF was added at day 1. On day 7, conditioned medium was replaced serum-free medium containing specified drugs. Four days later, cell density was estimated using the NIH Image program version 1.47 and number of neurite-expressing cells counted manually in blind fashion as described previously (Martin et al., 1994). A Nikon inverted microscope (100× magnification) was attached to a Mac II computer via a monochrome video camera (Cohu, Inc., San Diego, Calif.). Four random areas were counted per plate and there were 4 plates per treatment group, unless otherwise indicated. Neurites were defined as processes at least 2× the length of the perikaryon. To assess the reliability of the image analyses, a reticle was used for direct quantification of cells in the same view as the one analyzed in random samples.
PC12 cells were differentiated for 1 week with NGF. Drugs were administered for the 4 day interval after removal of serum and NGF. Neuites were counted and expressed as the mean±SEM of at least 3 plates/group.

[8] = Table 4, read-out: Receptor Binding α7
[9] = read-out: alpha7 activation: response, normalized to 500 μM acetylcholine (maximum response)
[10] = read-out: alpha7 binding: % Inhibition of high affinity alphabungarotoxin binding (1 nM)

T1 sequence (Q05941 23-502): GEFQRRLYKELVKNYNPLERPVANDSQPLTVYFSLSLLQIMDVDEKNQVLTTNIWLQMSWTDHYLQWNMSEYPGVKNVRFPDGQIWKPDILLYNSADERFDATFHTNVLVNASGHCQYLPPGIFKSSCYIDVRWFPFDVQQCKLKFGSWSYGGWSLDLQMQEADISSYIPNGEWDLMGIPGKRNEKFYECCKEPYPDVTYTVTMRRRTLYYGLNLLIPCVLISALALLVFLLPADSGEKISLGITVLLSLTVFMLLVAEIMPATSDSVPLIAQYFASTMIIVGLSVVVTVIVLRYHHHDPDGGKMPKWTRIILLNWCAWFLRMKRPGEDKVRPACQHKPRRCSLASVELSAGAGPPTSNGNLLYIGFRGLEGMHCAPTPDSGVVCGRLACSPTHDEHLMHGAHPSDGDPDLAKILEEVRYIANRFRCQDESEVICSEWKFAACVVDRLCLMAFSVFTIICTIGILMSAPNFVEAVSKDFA
Chain of alpha7 receptor (high affinity alpha-bungarotoxin binding, rat brain membranes) (Q05941 23-502): as above
Chain of rat alpha4beta2 receptor (P09483 31-630): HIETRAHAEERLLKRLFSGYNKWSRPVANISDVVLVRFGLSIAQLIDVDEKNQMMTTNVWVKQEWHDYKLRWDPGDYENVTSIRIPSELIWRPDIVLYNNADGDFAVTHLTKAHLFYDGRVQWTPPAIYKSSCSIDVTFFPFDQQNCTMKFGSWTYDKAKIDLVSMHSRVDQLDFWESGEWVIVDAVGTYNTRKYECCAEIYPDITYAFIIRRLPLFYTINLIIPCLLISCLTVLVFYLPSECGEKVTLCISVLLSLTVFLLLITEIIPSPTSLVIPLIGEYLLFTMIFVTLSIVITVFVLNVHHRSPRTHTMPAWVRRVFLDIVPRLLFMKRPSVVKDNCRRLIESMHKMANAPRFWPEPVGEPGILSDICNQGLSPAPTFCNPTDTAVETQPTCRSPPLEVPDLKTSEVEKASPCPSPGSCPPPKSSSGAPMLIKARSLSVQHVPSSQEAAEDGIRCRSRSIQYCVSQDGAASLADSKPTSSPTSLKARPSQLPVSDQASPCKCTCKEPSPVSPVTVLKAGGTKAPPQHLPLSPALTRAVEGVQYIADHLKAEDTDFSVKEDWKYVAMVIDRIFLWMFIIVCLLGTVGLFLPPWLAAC
Chain of rat alpha4beta2 receptor (P12390 25-500): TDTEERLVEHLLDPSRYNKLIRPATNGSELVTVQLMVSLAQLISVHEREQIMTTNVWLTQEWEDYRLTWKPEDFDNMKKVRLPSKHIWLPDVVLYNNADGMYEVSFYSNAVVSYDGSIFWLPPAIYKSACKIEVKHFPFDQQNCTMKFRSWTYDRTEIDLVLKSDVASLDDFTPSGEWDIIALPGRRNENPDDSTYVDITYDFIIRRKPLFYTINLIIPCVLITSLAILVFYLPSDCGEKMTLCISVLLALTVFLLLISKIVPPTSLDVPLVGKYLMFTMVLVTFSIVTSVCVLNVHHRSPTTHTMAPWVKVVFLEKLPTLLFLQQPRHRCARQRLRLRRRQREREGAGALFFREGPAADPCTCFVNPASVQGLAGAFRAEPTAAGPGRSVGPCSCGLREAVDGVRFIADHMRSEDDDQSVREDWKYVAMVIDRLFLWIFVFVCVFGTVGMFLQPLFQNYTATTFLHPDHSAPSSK

**Q.** `COc1ccc(C=C2CCCNC2c2cccnc2)c(OC)c1` (centres unmarked) [3(4-dimethoxy-benzylidene)anabasine] was tested. Which inhibition at 1 µM [1, 8] did it give?
**A.** 9%

**Q.** How did the Emax [2] turn out when `COc1ccc(C=C2CCCN=C2c2cccnc2)cc1` [GTS-2, 3-(4-methoxybenzylidene)anabaseine] was run?
**A.** 5%

**Q.** What about the Emax [3, 9] of the same compound?
**A.** 7%

**Q.** `Oc1ccc(C=C2CCCN=C2c2cccnc2)cc1` [GTS-7, 3-(4-hydroxybenzylidene)anabaseine] was tested. Which inhibition at 1 µM [1, 8] did it give?
**A.** 69.3%

**Q.** What about the inhibition at 1 µM ([1]; concentration of 1 μM (Table 1), read-out: alpha7 binding: % Inhibition of high affinity alphabungarotoxin binding (1 nM)) of the same compound?
**A.** 69%

**Q.** And the Emax [2]?
**A.** 2%

**Q.** And the Emax [3, 9]?
**A.** 31%

**Q.** `Nc1ccc(C=C2CCCN=C2c2cccnc2)cc1` [GTS-13, 3-(4-aminobenzylidene)anabaseine] was tested. Which inhibition at 1 µM ([1]; read-out: Receptor Binding α7) did it give?
**A.** 93%

**Q.** And the inhibition at 1 µM [1, 10]?
**A.** 93%

**Q.** What about the Emax [2] of the same compound?
**A.** 5%

**Q.** What about the Emax ([3]; read-out: Oocytes Agonist α7) of the same compound?
**A.** 72%

**Q.** What about the Emax [3, 9] of the same compound?
**A.** 72%

**Q.** And the “Oocytes Antagonist” value [4]?
**A.** .69

**Q.** For `COc1ccc(C=C2CCCN=C2c2cccnc2)c(O)c1` [GTS-51, 3-(2-hydroxy-4-methoxybenzylidene) anabaseine], which inhibition at 1 µM [1, 10] is on record?
**A.** 45%

**Q.** What about the Emax [2] of the same compound?
**A.** 1%

**Q.** What about the Emax ([3]; read-out: Oocytes Agonist α7) of the same compound?
**A.** 29%

**Q.** And the Emax [3, 9]?
**A.** 29%

**Q.** And the “Oocytes Antagonist” value [4]?
**A.** .26

**Q.** What does the source list for `COc1cc(O)ccc1C=C1CCCN=C1c1cccnc1` [GTS-62, 3-(4-hydroxy-2-methoxybenzylidene)anabaseine]?
**A.** inhibition at 1 µM ([1]; read-out: Receptor Binding α7): 84%; inhibition at 1 µM [1, 10]: 84%; Emax [2]: 4%; Emax ([3]; read-out: Oocytes Agonist α7): 43%; Emax [3, 9]: 41%; Oocytes Antagonist [4]: .35

**Q.** With `COc1ccc(C(C)=C2CCCN=C2c2cccnc2)c(OC)c1` [GTS-80, 3-(2,4-dimethoxy-α-methyl-benzylidene)] as the compound, how does the inhibition at 1 µM [1, 8] read?
**A.** 85%

**Q.** With `COc1cc(O)ccc1/C=C/C=C1\CCCN=C1c1cccnc1` [GTS-86, trans-3-(4-hydroxy-2-methoxycinnamylidene) anabaseine dihydrochloride] as the compound, how does the inhibition at 1 µM [1, 8] read?
**A.** 90%

**Q.** Which inhibition at 1 µM [1, 8] does the source give for `COc1ccc(/C=C/C=C2\CCCN=C2c2cccnc2)c(OC)c1` [GTS-87, trans-3-(2,4-dimethoxycinnamylidene) anabaseine dihydrochloride] here?
**A.** 76%

**Q.** `C[C@]12N[C@H](Cc3ccccc31)c1ccccc12` [MK-801] was tested. Which “protection against glutamate, concomitant (in words)” value ([5]; 10 μM, with 1 mM glutamate) did it give?
**A.** blocking effect

**Q.** What does the source list for `CN(C)CCCOc1ccc(C=C2CCCN=C2c2cccnc2)cc1` [compound 15, 3(4-dimethylaminopropoxy-benzylidene)anabaseine]?
**A.** inhibition at 1 µM [1, 8]: 87%; Emax ([3]; Table 4, read-out: Oocytes Agonist α7): 3%; Oocytes Antagonist ([4]; Table 4): .02

**Q.** With `C[N+](C)(C)CCCCCC[N+](C)(C)C` [hexamethonium] as the compound, how does the “antagonist effect on DMXB-induced neuroprotection (in words)” value (“antagonist effect” below) ([5]; against glutamate cytotoxicity) read?
**A.** sensitive

**Q.** With `CNC1(C)C2CCC(C2)C1(C)C` (centres unmarked) [mecamylamine, reference compound] as the compound, how does the “block of neuroprotective action of DMXB (in words)” value [6] read?
**A.** blocked this neuroprotective action of DMXB; also recorded: blocking action

**Q.** What about the “antagonist effect” value ([5]; against glutamate cytotoxicity) of the same compound?
**A.** sensitive

**Q.** With `CCN1C[C@]2(COC(=O)c3ccccc3N3C(=O)C[C@H](C)C3=O)CC[C@H](OC)[C@@]34[C@@H]5C[C@H]6[C@H](OC)[C@@H]5[C@](O)(C[C@@H]6OC)[C@@](O)([C@@H](OC)[C@H]23)[C@@H]14` [methyllycaconitine] as the compound, how does the “antagonist effect” value ([5]; against glutamate cytotoxicity) read?
**A.** sensitive

**Q.** `CN1CCCC1c1cccnc1` (centres unmarked) [nicotine] was tested. Which “protection by nicotine (in words)” value [5] did it give?
**A.** protected against neuronal loss

**Q.** With “(7'-methyl-3-(2,4-dimethoxybenzylidene)) anabaseine [7'-methyl-DMXB]” as the compound, how does the “alpha4beta2 activation: response compared to maximal acetylcholine” value ([2]; xenopus oocytes) read?
**A.** 0.02

**Q.** What about the “alpha7 activation: response, normalized to 500 μM acetylcholine (maximum response)” value [3] of the same compound?
**A.** 0.32

**Q.** For “NGF: nerve growth factor, 100 ng/ml (rat 2.5S NGF)”, which “Neurite Counts” value [7] is on record?
**A.** 342 ± 56

**Q.** Which Kd ([1]; read-out: Kd, Scatchard analysis (r=0.98; single site model)) does the source give for α-bungarotoxin [reference compound] here?
**A.** 1.9 nM

**Q.** What about the “antagonist effect” value [5] of the same compound?
**A.** sensitive
